Data from patent publication US9211310B2, “Use of a Chinese medicine composition in preparing medicaments for treating secondary prevention of myocardial infarction” (TASLY PHARMACEUTICAL GROUP CO., LTD, priority 2010, dated 2015).

System: patients after acute myocardial infarction
Test: TCM symptom score, total and single (chest pain, chest tightness, short breath, fatigue, palpitation, spontaneous perspiration, pale complexion), same clinical trial
Format: in vivo, human
Parameters: total score of TCM symptom, Mean / total score of TCM symptom, Min / total score of TCM symptom, Max / total score of TCM symptom, Md / change of total score of TCM symptom, Mean / change of total score of TCM symptom, Max / change of total score of TCM symptom, Md: scale not given here
Conditions: FAS
From the text: 3508 patients who were in accordance with the diagnostic standards of AMI for 28 days to 2 years and differentiated as Qi deficiency and blood stagnation syndrome by TCM were studied. 0.5 g Chinese medicine composition prepared by the method of EXAMPLE 1 (Coded as QSYQ) was administrated half an hour after meal, 3 times per day.
They included the overall survival time, angina pectoris score, TCM symptom score and life quality score, where angina pectoris score, TCM symptom score and life quality score were evaluated at randomization, in 1st, 3rd, 6th, 9th, 12th month after treatment and 18th month after follow-up.
The analysis method referred to the angina pectoris score.

[1] = 12 months after treatment-baseline

With `CC(=O)Oc1ccccc1C(=O)O` [Control group, aspirine] the “change of palpitation 3, number of patients” value [1] was 8, the “change of palpitation 3, percent of patients” value [1] was “(0.47%)” and the “change of palpitation −1, percent of patients” value [1] was “(6.55%)”. The “change of palpitation −2, number of patients” value [1] was 4, the “change of palpitation −2, percent of patients” value [1] was “(0.23%)” and the “change of palpitation −3, number of patients” value [1] was 0. For the same compound, the “change of palpitation −3, percent of patients” value [1] was “(0.00%)”, the “change of spontaneous perspiration 0, number of patients” value [1] was 837 and the “change of spontaneous perspiration 0, percent of patients” value [1] was “(48.98%)”. For the same compound, the “change of spontaneous perspiration 1, number of patients” value [1] was 550, the “change of spontaneous perspiration 1, percent of patients” value [1] was “(32.18%)” and the “change of spontaneous perspiration 2, number of patients” value [1] was 139. For the same compound, the “change of spontaneous perspiration 2, percent of patients” value [1] was “(8.13%)”, the “change of spontaneous perspiration 3, number of patients” value [1] was 34 and the “change of spontaneous perspiration 3, percent of patients” value [1] was “(1.99%)”. For the same compound, the “change of spontaneous perspiration −1, number of patients” value [1] was 137, the “change of spontaneous perspiration −1, percent of patients” value [1] was “(8.02%)” and the “change of spontaneous perspiration −2, number of patients” value [1] was 12. For the same compound, the “change of spontaneous perspiration −2, percent of patients” value [1] was “(0.70%)”, the “change of spontaneous perspiration −3, number of patients” value [1] was 0 and the “change of spontaneous perspiration −3, percent of patients” value [1] was “(0.00%)”. For the same compound, the “change of total score of TCM symptom, Max” value [1] was 18.00, the “change of total score of TCM symptom, Md” value [1] was −5.00 and the “change of total score of TCM symptom, Mean” value [1] was −5.39. For the same compound, the “change of total score of TCM symptom, Min” value [1] was −33.00, the “distribution of total score of TCM symptom: Medium, number of patients” value (Baseline) was 817 and the “distribution of total score of TCM symptom: Medium, percentage of patients” value (Baseline) was “(47.83%)”. For the same compound, the “distribution of total score of TCM symptom: Mild, number of patients” value (Baseline) was 828, the “distribution of total score of TCM symptom: Mild, percentage of patients” value (Baseline) was “(48.48%)” and the “distribution of total score of TCM symptom: Severe, number of patients” value (Baseline) was 63. For the same compound, the “distribution of total score of TCM symptom: Severe, percentage of patients” value (Baseline) was “(3.69%)”, the “fatigue score 0, % of patients” value (Baseline) was “(18.42%)” and the “fatigue score 0, number of patients” value (Baseline) was 315. For the same compound, the “fatigue score 2, % of patients” value (Baseline) was “(60.94%)”, the “fatigue score 2, number of patients” value (Baseline) was 1042 and the “fatigue score 4, % of patients” value (Baseline) was “(16.90%)”. The “fatigue score 4, number of patients” value (Baseline) was 289, the “fatigue score 6, % of patients” value (Baseline) was “(3.74%)” and the “fatigue score 6, number of patients” value (Baseline) was 64. The “pale complexion score 0, number of patients” value (Baseline) was 572, the “pale complexion score 0, percent of patients” value (Baseline) was “(33.47%)” and the “pale complexion score 1, number of patients” value (Baseline) was 741. For the same compound, the “pale complexion score 1, percent of patients” value (Baseline) was “(43.36%)”, the “pale complexion score 2, number of patients” value (Baseline) was 325 and the “pale complexion score 2, percent of patients” value (Baseline) was “(19.02%)”. The “pale complexion score 3, number of patients” value (Baseline) was 71, the “pale complexion score 3, percent of patients” value (Baseline) was “(4.15%)” and the “short breath score 0, % of patients” value (Baseline) was “(15.04%)”. For the same compound, the “short breath score 0, number of patients” value (Baseline) was 257, the “short breath score 3, % of patients” value (Baseline) was “(51.84%)” and the “short breath score 3, number of patients” value (Baseline) was 886. For the same compound, the “short breath score 6, % of patients” value (Baseline) was “(31.19%)”, the “short breath score 6, number of patients” value (Baseline) was 533 and the “short breath score 9, % of patients” value (Baseline) was “(1.93%)”. For the same compound, the “short breath score 9, number of patients” value (Baseline) was 33, the “distribution of total score of TCM symptom: Medium, number of patients” value (Follow-up) was 218 and the “distribution of total score of TCM symptom: Medium, percentage of patients” value (Follow-up) was “(15.29%)”. The “distribution of total score of TCM symptom: Mild, number of patients” value (Follow-up) was 1205, the “distribution of total score of TCM symptom: Mild, percentage of patients” value (Follow-up) was “(84.50%)” and the “distribution of total score of TCM symptom: Severe, number of patients” value (Follow-up) was 3. The “distribution of total score of TCM symptom: Severe, percentage of patients” value (Follow-up) was “(0.21%)”, the “fatigue score 0, % of patients” value (Follow-up) was “(42.76%)” and the “fatigue score 0, number of patients” value (Follow-up) was 611. For the same compound, the “fatigue score 2, % of patients” value (Follow-up) was “(53.11%)”, the “fatigue score 2, number of patients” value (Follow-up) was 759 and the “fatigue score 4, % of patients” value (Follow-up) was “(3.92%)”. The “fatigue score 4, number of patients” value (Follow-up) was 56, the “fatigue score 6, % of patients” value (Follow-up) was “(0.21%)” and the “fatigue score 6, number of patients” value (Follow-up) was 3. For the same compound, the “pale complexion score 0, number of patients” value (Follow-up) was 882, the “pale complexion score 0, percent of patients” value (Follow-up) was “(61.72%)” and the “pale complexion score 1, number of patients” value (Follow-up) was 465. The “pale complexion score 1, percent of patients” value (Follow-up) was “(32.54%)”, the “pale complexion score 2, number of patients” value (Follow-up) was 76 and the “pale complexion score 2, percent of patients” value (Follow-up) was “(5.32%)”. For the same compound, the “pale complexion score 3, number of patients” value (Follow-up) was 6, the “pale complexion score 3, percent of patients” value (Follow-up) was “(0.42%)” and the “palpitation score 0, number of patients” value (Follow-up) was 631. The “palpitation score 0, percent of patients” value (Follow-up) was “(44.16%)”, the “palpitation score 2, number of patients” value (Follow-up) was 697 and the “palpitation score 2, percent of patients” value (Follow-up) was “(48.78%)”. The “palpitation score 4, number of patients” value (Follow-up) was 95, the “palpitation score 4, percent of patients” value (Follow-up) was “(6.65%)” and the “palpitation score 6, number of patients” value (Follow-up) was 6. For the same compound, the “palpitation score 6, percent of patients” value (Follow-up) was “(0.42%)”, the “short breath score 0, % of patients” value (Follow-up) was “(35.62%)” and the “short breath score 0, number of patients” value (Follow-up) was 509. The “short breath score 2, % of patients” value (Follow-up) was “(0.07%)”, the “short breath score 2, number of patients” value (Follow-up) was 1 and the “short breath score 3, % of patients” value (Follow-up) was “(54.51%)”. The “short breath score 3, number of patients” value (Follow-up) was 779, the “short breath score 6, % of patients” value (Follow-up) was “(9.59%)” and the “short breath score 6, number of patients” value (Follow-up) was 137. For the same compound, the “short breath score 9, % of patients” value (Follow-up) was “(0.21%)”, the “short breath score 9, number of patients” value (Follow-up) was 3 and the “spontaneous perspiration score 0, number of patients” value (Follow-up) was 767. The “spontaneous perspiration score 0, percent of patients” value (Follow-up) was “(53.71%)”, the “spontaneous perspiration score 1, number of patients” value (Follow-up) was 595 and the “spontaneous perspiration score 1, percent of patients” value (Follow-up) was “(41.67%)”. The “spontaneous perspiration score 2, number of patients” value (Follow-up) was 62, the “spontaneous perspiration score 2, percent of patients” value (Follow-up) was “(4.34%)” and the “spontaneous perspiration score 3, number of patients” value (Follow-up) was 4. For the same compound, the “spontaneous perspiration score 3, percent of patients” value (Follow-up) was “(0.28%)”, the “total score of TCM symptom, Max” value (Follow-up) was 32.00 and the “total score of TCM symptom, Md” value (Follow-up) was 7.00. For the same compound, the “total score of TCM symptom, Mean” value (Follow-up) was 7.71, the “total score of TCM symptom, Min” value (Follow-up) was 0.00 and the “change of fatigue 0, % of patients” value (Follow-up-baseline) was “(42.67%)”. For the same compound, the “change of fatigue 0, number of patients” value (Follow-up-baseline) was 608, the “change of fatigue 2, % of patients” value (Follow-up-baseline) was “(37.68%)” and the “change of fatigue 2, number of patients” value (Follow-up-baseline) was 537. For the same compound, the “change of fatigue 4, % of patients” value (Follow-up-baseline) was “(11.09%)”, the “change of fatigue 4, number of patients” value (Follow-up-baseline) was 158 and the “change of fatigue 6, % of patients” value (Follow-up-baseline) was “(2.11%)”. For the same compound, the “change of fatigue 6, number of patients” value (Follow-up-baseline) was 30, the “change of fatigue −2, % of patients” value (Follow-up-baseline) was “(6.11%)” and the “change of fatigue −2, number of patients” value (Follow-up-baseline) was 87. For the same compound, the “change of fatigue −4, % of patients” value (Follow-up-baseline) was “(0.35%)”, the “change of fatigue −4, number of patients” value (Follow-up-baseline) was 5 and the “change of pale complexion 0, number of patients” value (Follow-up-baseline) was 950. The “change of pale complexion 0, percent of patients” value (Follow-up-baseline) was “(66.95%)”, the “change of pale complexion 1, number of patients” value (Follow-up-baseline) was 430 and the “change of pale complexion 1, percent of patients” value (Follow-up-baseline) was “(30.30%)”.
